Tests used:
GAS41 YEATS domain [1] = target: T1, GAS41 YEATS domain (Homo sapiens, UniProt O95619); experiment: Fluorescence polarization competition assay with H3K23crK27cr-FAM probe; type: binding
Target sequence in this assay (O95619 1-148): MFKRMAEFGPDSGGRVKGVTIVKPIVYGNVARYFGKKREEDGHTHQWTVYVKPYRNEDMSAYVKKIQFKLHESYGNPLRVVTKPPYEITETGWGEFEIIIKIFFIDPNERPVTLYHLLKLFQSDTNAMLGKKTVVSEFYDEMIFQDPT

[2] = target: his6-GAS41 YEATS (13-158) (Homo sapiens, UniProt O95619); experiment: AlphaLISA competition assay with 21-biot probe
H1299 cells = experiment: Wound healing assay; type: cell-based; conditions: H1299, 24 h
[3] = target: NanoLuc-tagged BRD4-BD1 and Halo-tagged histone H3.3 (Homo sapiens, UniProt O60885); experiment: BRD4-BD1 NanoBRET assay; type: cell-based; conditions: Figure S3
GAS41 YEATS domain [4] = target: T1, GAS41 YEATS domain; experiment: 1H-15N HSQC NMR binding experiments; conditions: 50 μM 15N GAS41 YEATS, 100 μM compound
Target sequence in this assay (O95619 18-190): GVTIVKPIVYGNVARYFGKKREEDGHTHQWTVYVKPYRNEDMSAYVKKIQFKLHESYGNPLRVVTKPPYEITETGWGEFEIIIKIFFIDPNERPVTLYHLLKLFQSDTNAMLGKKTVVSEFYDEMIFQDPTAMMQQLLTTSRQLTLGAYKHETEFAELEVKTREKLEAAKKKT

CDKN1A = CDKN1A gene expression by RT-qPCR in H1299 cells; type: cell-based; conditions: 7 days
[5] = target: NanoLUC-GAS41 and Halo-H3.3 (Homo sapiens, UniProt O95619); experiment: GAS41 NanoBRET assay in HEK293T cells; type: cell-based
NanoLUC-GAS41 and Halo-H3.3, sequence (O95619 whole entry): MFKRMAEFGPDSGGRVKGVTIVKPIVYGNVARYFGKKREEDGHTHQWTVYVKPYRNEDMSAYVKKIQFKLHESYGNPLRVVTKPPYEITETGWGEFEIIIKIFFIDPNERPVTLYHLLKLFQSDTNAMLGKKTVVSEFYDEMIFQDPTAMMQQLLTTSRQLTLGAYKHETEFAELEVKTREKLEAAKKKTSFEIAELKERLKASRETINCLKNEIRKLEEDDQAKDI

his6-GAS41 YEATS (13-158), sequence (O95619 13-158): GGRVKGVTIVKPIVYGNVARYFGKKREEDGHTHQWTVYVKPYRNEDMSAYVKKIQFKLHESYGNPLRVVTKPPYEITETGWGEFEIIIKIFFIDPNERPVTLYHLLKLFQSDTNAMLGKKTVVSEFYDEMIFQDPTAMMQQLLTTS

IC50 (GAS41 YEATS domain [1]) [nM] | IC50 [2] [nM] | SMILES | other results
1300 ± 400 | 600 ± 80 | O=C(NCc1ccc(-c2cnc(C3CN(C(=O)c4ccc(NC(=O)[C@@H]5CCCN5)s4)C3)s2)cc1)C1CCCC1 [Compound 30, (S)-N-(5-(3-(5-(4-(cyclopentanecarboxamidomethyl)phenyl)thiazol-2-yl)azetidine-1-carbonyl)thiophen-2-yl)pyrrolidine-2-carboxamide] | 
1100 ± 10 | 200 ± 80 | O=C(NCc1ccc(-c2cnc(C3CN(C(=O)c4ccc(NC(=O)[C@@H]5CCCN5)s4)C3)s2)cc1)c1ccccc1 [Compound 31, (S)-N-(5-(3-(5-(4-(benzamidomethyl)phenyl)thiazol-2-yl)azetidine-1-carbonyl)thiophen-2-yl)pyrrolidine-2-carboxamide] | 
3400 ± 130 | 1400 ± 330 | CC(=O)NCc1ccc(-c2cnc(C3CN(C(=O)c4ccc(NC(=O)[C@@H]5CCCN5)s4)C3)s2)c(Cl)c1 [Compound 35, (S)-N-(5-(3-(5-(4-(acetamidomethyl)-2-chlorophenyl)thiazol-2-yl)azetidine-1-carbonyl)thiophen-2-yl)pyrrolidine-2-carboxamide] | 
 |  | CCC(=O)NCc1ccc(-c2cnc(C3CN(C(=O)c4ccc(NC(=O)[C@@H]5CC(C)(C)CN5)s4)C3)s2)c2ccccc12 [Compound 39, (S)-4,4-dimethyl-N-(5-(3-(5-(4-(propionamidomethyl)naphthalen-1-yl)thiazol-2-yl)azetidine-1-carbonyl)thiophen-2-yl)pyrrolidine-2-carboxamide] | scratch healing (H1299 cells): slowed scratch healing; activity in BRD4-BD1 NanoBRET assay [3]: no activity
118000 ± 7700 | > 50000 | CCC(=O)NCc1ccc(-c2cnc(C3CN(C(=O)c4cnc(NC(=O)[C@@H]5CC(C)(C)CN5)s4)C3)s2)c2ccccc12 [Compound 40, (S)-4,4-dimethyl-N-(5-(3-(5-(4-(propionamidomethyl)naphthalen-1-yl)thiazol-2-yl)azetidine-1-carbonyl)thiazol-2-yl)pyrrolidine-2-carboxamide] | amide perturbations in 1H-15N HSQC NMR (GAS41 YEATS domain [4]): no perturbations; levels of CDKN1A (CDKN1A): but not DLG-41nc strongly enhanced levels of CDKN1A; IC50 [5]: > 25000 nM
 |  | Cc1sc2c(c1C)C(c1ccc(Cl)cc1)=N[C@@H](CC(=O)OC(C)(C)C)c1nnc(C)n1-2 [JQ1, reference compound] | activity in GAS41 BRET assay ([5]; Figure S3): no activity

Source: PMC12880737 (Journal of medicinal chemistry, 2025)
